Entries after “also recorded” stand apart in the source; their conditions may differ.

The nature of this data set: Degradation of the ions in the concomitant presence of LP (NMR signal at 49 ppm). Type of data set: physicochemical. The note with it: for signal at 49 ppm / wanted ions in concomitant presence of LP: after 48 h. On the procedure:
During the production of the wanted ions, if one keeps the enzyme in the mixture, one observes a gradual loss of the wanted ions, and, after 48 h, a total loss of the wanted ions due to enzymatic oxidation of the wanted ions, as illustrated in FIG. 19 in which one observes a decrease in the intensity of the signal as a function of the time of presence of the enzyme in the matrix (solution).

With I2SCN^− and/or I(SCN)2^− ions, the “signal at 49 ppm / wanted ions in concomitant presence of LP” value is recorded as “total disappearance of the signal; also recorded: complete disappearance”. The “signal at 49 ppm in concomitant presence of LP” value (3 h of incubation) was “pronounced decrease of the signal”. The “signal at 49 ppm in concomitant presence of LP” value (after 1 h) is listed as “slight decrease”. Moreover, the “signal at 49 ppm / wanted ions in concomitant presence of LP” value (listed as wanted ions) is “total loss”.

The record behind these values is patent US20200361779A1, “COMPOSITION INCLUDING I2SCN- IONS AND/OR I(SCN)2- IONS” (priority 2015, published 2020).
